This note sets out measurements from ChEMBL document CHEMBL1201862, “PubChem BioAssay data set” (2004).

As a reminder, the GI50 is the concentration that inhibits growth by half.

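All cell lines were grown in 96-well plates and treated with compound for 48 hours. GI50 = concentration required for 50% inhibition of growth.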 The source made the active and inactive calls. No stated cut-off is given here; in the data, active = GI50 up to about 1.1 µM and inactive = higher. Some results are limits rather than exact numbers.

Test systems include 786-0; CCRF-CEM; HCT-116; HCT-15; HOP-92; IGROV-1; K562; KM12; LOX IMVI; MOLT-4; OVCAR-5; OVCAR-8; SK-MEL-2; SK-MEL-5; SW-620; UO-31.
Test in all cases: DTP human tumour cell line panel, 48 h

As for `O=C(OCc1ccccc1C1CSCSC1)c1cc(C(=O)OCc2ccccc2C2CSCSC2)c(C(=O)OCc2ccccc2C2CSCSC2)cc1C(=O)OCc1ccccc1C1CSCSC1`, the GI50 with 786-0 is 65 µM (inactive); with CCRF-CEM, > 100 µM (inactive); in the assay with HCT-116, > 100 µM (inactive); with HCT-15, above 100 µM; in the assay with HOP-92 it was > 100 µM (inactive); in the assay on IGROV-1, > 100 µM (inactive). Besides, the GI50 in the assay with K562, in the assay on KM12, in the assay on LOX IMVI, in the assay with MOLT-4, in the assay on OVCAR-5 and in the assay on OVCAR-8 was > 100 µM (inactive) throughout. Moreover, the GI50 in the assay on SK-MEL-2, in the assay on SK-MEL-5, in the assay with SW-620 and in the assay on UO-31 was > 100 µM (inactive) each time.
With `OCC(O)C(O)C(O)C(O)c1nnn[nH]1` (configuration not stated), the GI50 in the assay on 786-0 is > 100 µM (inactive); in the assay with CCRF-CEM, > 100 µM (inactive); with HCT-116, > 100 µM (inactive); in the assay on HCT-15, above 100 µM; in the assay with HOP-92 it was > 100 µM (inactive); in the assay with IGROV-1, > 100 µM (inactive). In addition, the GI50 with K562, in the assay on KM12, with LOX IMVI, with MOLT-4, in the assay with OVCAR-5 and in the assay with OVCAR-8 was > 100 µM (inactive) in each case. The GI50 is > 100 µM (inactive) in the assay with SK-MEL-2, 78.9 µM (inactive) with SK-MEL-5, > 100 µM (inactive) with SW-620 and > 100 µM (inactive) in the assay with UO-31.
On to `COc1cc2c(cc1OC)C(Cc1cc(Br)c(OC)c(OC)c1)=[N+](C)CC2`, for which the GI50 was > 100 µM (inactive) in the assay with 786-0; 92.5 µM (inactive) in the assay with CCRF-CEM; > 100 µM (inactive) in the assay on HCT-116; above 100 µM in the assay with HCT-15; 28.2 µM (inactive) in the assay on HOP-92; > 100 µM (inactive) in the assay on IGROV-1. In addition, the GI50 in the assay with K562 was 18.8 µM (inactive); with KM12, > 100 µM (inactive); with LOX IMVI it was 39.3 µM (inactive); with OVCAR-5, 45.1 µM (inactive); in the assay on OVCAR-8 it was 27 µM (inactive); with SK-MEL-2, > 100 µM (inactive). Moreover, the GI50 with SK-MEL-5 is 19.2 µM (inactive); with SW-620, 67.3 µM (inactive); with UO-31, > 100 µM (inactive).
Turning to `C/C(=N\Nc1ccccc1)c1sc(-c2nc(C)c(/C(C)=N/Nc3ccccc3)s2)nc1C`, the GI50 is 18.8 µM (inactive) with 786-0; 28.3 µM (inactive) in the assay with CCRF-CEM; 33.7 µM (inactive) in the assay on HCT-116; 11.4 µM with HCT-15; 10.4 µM (inactive) in the assay on HOP-92; 14.1 µM (inactive) with IGROV-1. In addition, the GI50 in the assay with K562 is 7.36 µM (inactive); with KM12, 24.7 µM (inactive); with LOX IMVI, 7.96 µM (inactive); in the assay on MOLT-4, 19.2 µM (inactive); in the assay with OVCAR-5 it was 51.3 µM (inactive); with OVCAR-8 it was 33.4 µM (inactive). The GI50 in the assay on SK-MEL-2 is > 100 µM (inactive); in the assay on SK-MEL-5, 16.7 µM (inactive); in the assay with SW-620, 13.8 µM (inactive); in the assay with UO-31, 8.83 µM (inactive).
On to `CC(O)C(C(=O)O)N(CC1(O)OCC(O)C(O)C1O)N=O` (configuration not stated), for which the GI50 with 786-0, in the assay on CCRF-CEM, with HCT-116, in the assay on HOP-92, with IGROV-1 and in the assay with K562 was > 100 µM (inactive) in each case. The GI50 with KM12, in the assay with LOX IMVI, in the assay on MOLT-4, with OVCAR-5, in the assay on OVCAR-8 and with SK-MEL-2 was > 100 µM (inactive) throughout. The GI50 in the assay with SW-620 and in the assay on UO-31 was > 100 µM (inactive) throughout.
Take `COc1cc(-c2nccc3cc(OC)c(OC)cc23)ccc1O`: the GI50 in the assay with 786-0 is 78 µM (inactive); in the assay with CCRF-CEM, 38.5 µM (inactive); with HCT-116, 49 µM (inactive); in the assay with HCT-15 it was 27.9 µM; in the assay on HOP-92, 23.9 µM (inactive); in the assay on IGROV-1, 80 µM (inactive). Further, the GI50 was 40.8 µM (inactive) in the assay on K562; 48.3 µM (inactive) with KM12; 36.6 µM (inactive) in the assay with LOX IMVI; 29.2 µM (inactive) in the assay on MOLT-4; 34.9 µM (inactive) with OVCAR-5; 44.1 µM (inactive) in the assay with OVCAR-8. Moreover, the GI50 with SK-MEL-2 was > 100 µM (inactive); in the assay with SK-MEL-5, 32.6 µM (inactive); with SW-620, 55.2 µM (inactive); in the assay on UO-31, > 100 µM (inactive).
With `Brc1ccccc1C1SCc2nc3ccccc3n21` (configuration not stated), the GI50 in the assay with 786-0 was 14 µM (inactive); with CCRF-CEM, 21 µM (inactive); with HCT-116, 8.07 µM (inactive); with HCT-15, 9.84 µM; with HOP-92, 10.8 µM (inactive); in the assay on IGROV-1, 18.6 µM (inactive). For the same compound, the GI50 in the assay on K562 is 7.01 µM (inactive); with KM12 it was 15.9 µM (inactive); in the assay with LOX IMVI, 13.2 µM (inactive); in the assay on MOLT-4, 18.5 µM (inactive); in the assay with OVCAR-5, 10.2 µM (inactive); in the assay on OVCAR-8, 23.6 µM (inactive). The GI50 in the assay on SK-MEL-2 was 15.5 µM (inactive); with SK-MEL-5, 6.34 µM (inactive); in the assay on SW-620, 32.3 µM (inactive); with UO-31 it was 10.4 µM (inactive).
Take `C#CCNC(=O)N(CC#C)N=O`: the GI50 is > 100 µM (inactive) with 786-0; 37.9 µM (inactive) with CCRF-CEM; > 100 µM (inactive) in the assay with HCT-116; above 100 µM in the assay on HCT-15; > 100 µM (inactive) with HOP-92; > 100 µM (inactive) in the assay with IGROV-1. For the same compound, the GI50 in the assay with K562 is 24.8 µM (inactive); in the assay on KM12, > 100 µM (inactive); with LOX IMVI, 38.6 µM (inactive); in the assay on MOLT-4, 31 µM (inactive); in the assay with OVCAR-5, > 100 µM (inactive); in the assay with OVCAR-8, > 100 µM (inactive). Further, the GI50 in the assay with SK-MEL-2, with SK-MEL-5, in the assay on SW-620 and with UO-31 was > 100 µM (inactive) each time.
`COc1cc(Br)c(/C=N\c2cccc3ccc(OS(=O)(=O)c4ccc([N+](=O)[O-])cc4)cc23)cc1OC`: the GI50 is 75.7 µM (inactive) in the assay with 786-0; > 100 µM (inactive) with CCRF-CEM; > 100 µM (inactive) in the assay on HCT-116; 10.5 µM with HCT-15; 47.3 µM (inactive) with HOP-92; > 100 µM (inactive) with IGROV-1. Also, the GI50 with KM12 is 59.4 µM (inactive); in the assay on LOX IMVI, 6.59 µM (inactive); with MOLT-4, > 100 µM (inactive); in the assay with OVCAR-5, > 100 µM (inactive); with OVCAR-8, > 100 µM (inactive); in the assay on SK-MEL-2, > 100 µM (inactive). Moreover, the GI50 in the assay with SK-MEL-5 is 13.8 µM (inactive); with SW-620, > 100 µM (inactive); with UO-31, 7.33 µM (inactive).
With `O=C(NNC(=O)/C(=C/c1cccc([N+](=O)[O-])c1)NC(=O)c1ccccc1)Nc1ccc(Cl)cc1`, the GI50 was 14 µM (inactive) in the assay with 786-0; 6.58 µM (inactive) with CCRF-CEM; 13.4 µM (inactive) in the assay with HCT-116; 12.2 µM in the assay on HCT-15; 21 µM (inactive) in the assay with HOP-92; 11.9 µM (inactive) in the assay with IGROV-1. The GI50 in the assay with K562 was 5.66 µM (inactive); in the assay on KM12 it was 11.4 µM (inactive); in the assay with LOX IMVI it was 15.6 µM (inactive); in the assay with MOLT-4 it was 3.94 µM (inactive); in the assay on OVCAR-5, 18.3 µM (inactive); with OVCAR-8 it was 14.2 µM (inactive). Moreover, the GI50 in the assay on SK-MEL-2 is 12.2 µM (inactive); in the assay with SK-MEL-5 it was 13.1 µM (inactive); in the assay with SW-620, 15.1 µM (inactive); in the assay with UO-31, 13.5 µM (inactive).
With `O=C(Nc1cccc(C(F)(F)F)c1)C(=O)C1NC(=S)NC1=O` (configuration not stated), the GI50 in the assay with 786-0 is > 100 µM (inactive); with CCRF-CEM, 54.5 µM (inactive); in the assay with HCT-116, 82.4 µM (inactive); in the assay with HCT-15 it was 35.3 µM; with HOP-92, > 100 µM (inactive); with IGROV-1, > 100 µM (inactive). Further, the GI50 was 71.1 µM (inactive) in the assay with K562; > 100 µM (inactive) with KM12; 72.9 µM (inactive) with LOX IMVI; > 100 µM (inactive) in the assay with MOLT-4; > 100 µM (inactive) in the assay on OVCAR-5; > 100 µM (inactive) with OVCAR-8. Further, the GI50 was > 100 µM (inactive) with SK-MEL-2, > 100 µM (inactive) in the assay on SK-MEL-5, 17.7 µM (inactive) with SW-620 and > 100 µM (inactive) with UO-31.
In the case of `CCN1C[C@]2(C)CC[C@H](O)C34C1C(C[C@@H]32)[C@@]1(O)CC[C@H]2C[C@@H]4[C@@H]1[C@H]2O`, the GI50 in the assay on 786-0 is > 100 µM (inactive); in the assay on CCRF-CEM it was > 100 µM (inactive); in the assay with HCT-116, > 100 µM (inactive); in the assay with HCT-15, above 100 µM; with HOP-92, > 100 µM (inactive); in the assay on IGROV-1 it was > 100 µM (inactive). In addition, the GI50 in the assay with KM12, in the assay with LOX IMVI, in the assay on MOLT-4, in the assay on OVCAR-5, in the assay with OVCAR-8 and in the assay on SK-MEL-2 was > 100 µM (inactive) throughout. The GI50 in the assay with SK-MEL-5, in the assay on SW-620 and in the assay with UO-31 was > 100 µM (inactive) throughout.
As to `Cc1ccc(S(=O)(=O)NC(=O)NCCc2ccccc2)cc1`, the GI50 in the assay with 786-0 is > 100 µM (inactive); in the assay with CCRF-CEM, > 100 µM (inactive); in the assay with HCT-116 it was > 100 µM (inactive); with HOP-92 it was > 100 µM (inactive); with IGROV-1, > 100 µM (inactive); with K562, 83.4 µM (inactive). For the same compound, the GI50 in the assay on KM12, in the assay on LOX IMVI, in the assay on MOLT-4, in the assay on OVCAR-5, with OVCAR-8 and in the assay on SK-MEL-2 was > 100 µM (inactive) each time. In addition, the GI50 in the assay on SK-MEL-5 is > 100 µM (inactive); with SW-620, > 100 µM (inactive); in the assay on UO-31, 51.8 µM (inactive).
